# Laboratory results taken from PMC11727143, “Peptide-Mediated Transport Across the Intact Tympanic Membrane Is Intracellular, with the Rate Determined by the Middle Ear Mucosal Epithelium” (Biomolecules, 2024).
# Tests used:
# tympanic membrane (TM) [1] = conditions: recovery from ME lumen after one-hour application to external TM surface; cited from earlier work
# Method: Each peptide phage was applied to the external TM surface (10^9 PFU in 10 μL of PBS) of six previously infected rats, ensuring that the entire membrane surface was covered for one hour. The phage solution was removed from the ex ...
# [2] = tested on: tympanic membrane (TM) cells; assay: Confocal imaging of immunolabeled phage within the tympanic membrane after one-hour application to the external TM surface in vivo; parameters: species or system Sprague Dawley rats
# Method: Rodent cocktail (2.0 mg/kg xylazine and 40.0 mg/kg ketamine i.m.) was employed for anesthesia. The ME bulla was exposed via a ventral midline neck incision. A 25 g needle was used to make a small opening in the bullar bone, through which 5 × 10^4 CFUs of nontypeable Haemophilus influenzae (NTHi) type 3655 [20] was injected, in 50 μL of BHI media using a 30 g needle. Care was taken to avoid damaging the tympanic membrane, ossicles, or inner ear. Animals survived for 48 h to allow for an ME infection to develop, which was confirmed by TM visualization. Phages were then applied to the external TM surface in vivo for one hour in 10^9 PFUs ([…] forming units) in 10 μL of PBS, ensuring the entire surface of the membrane was covered.
# For confocal microscopy, TMT3 and WT phages were employed. The animal was sacrificed, the phage solution removed, and the TM washed 3× with PBS to remove any remaining phage solution, then 2× with acid wash to remove phages bound to the TM, followed by 2× with PBS. The bulla was then dissected and opened, the interior TM surfaces were washed as above, and the TM was fixed in cold 4% PFA overnight. The TM was dissected from the annular bone and additionally washed 2× with PBS, and the manubrium of the malleus carefully removed. The membrane was incubated in tissue-penetration and blocking solution (5% Triton X and 10% fetal bovine serum (FBS) in PBS) for one hour at room temperature. The TMs were again washed 2× in PBS and incubated in primary antibody (M13 anti-phage coat protein, rabbit polyclonal antibody, Invitrogen PA1-26758, 1:100) overnight at 4 °C. TMs were washed 2× in PBS and incubated with a secondary antibody (FITC-labeled anti-rabbit, Jackson Immuno, 711-095-152) previously treated with DyLight 405 stain for enhanced visualization (Jackson Immuno 711-475-152) at 1:100 concentration for three hours at room temperature with light protection. TMs were again washed with PBS 2× and stained with DAPI (Novus NPB2-31156, 1:1000, 30 min at room temperature with light protection). Some TMs were also incubated with Texas Red-X Phalloidin (Invitrogen T7471, F-actin staining) at 1:500 concentration for one and one-half hours at room temperature and light protection to stain actin. After incubations, TMs were washed 2× with PBS and mounted with the external surface uppermost using antifade, hard-mount media (Vectashield, VectaLabs H-1400). Control TMs were exposed for 1 h to PBS in vivo and then identically treated.
# The localization of the phage was evaluated via fluorescence confocal microscopy. TMs were imaged on a Leica SP8 Confocal with Lightning-adaptive deconvolution or an Olympus FV1000 Confocal with SIM Scanner, and 60× and 100× image stacks were generated for rendering of stained TMs. Image stacks were post-processed using Velocity high-performance software to generate images. Separate portions of the stacks were used to visualize phages in the external epithelium, the middle fibrous layer, and the inner mucosal epithelium.
# tympanic membrane (TM) [3] = assay: Titer of phage recovered from within the TM (homogenate) after one-hour application to the external TM surface; type: in vivo, Sprague Dawley rats; conditions: 10^9 PFU in 10 μL PBS, six infected rats, PBS and 0.2 M glycine acid wash (pH 2.2), TM homogenized, titered on E. coli, mean of six
# Method: Each peptide phage was applied to the external TM surface (10^9 PFU in 10 μL of PBS) of six previously infected rats, ensuring that the entire membrane surface was covered for one hour.
# [4] = NTHi-infected ME, 10^9 PFU in 10 μL PBS, one hour, confocal, ImageJ count
sequence,measurement,setting,value
"SADSTKTTHLTL [TMT3, M13 bacteriophage displaying 12-mer trans-TM peptide […] on pIII]",trans-TM transport rate (in words),tympanic membrane (TM) [1],high transport rate
same,"mean number of puncta per cell, external epithelium of the TM","[2]; NTHi-infected ME, 10^9 PFU in 10 μL PBS on external TM surface, one hour, anti-M13 immunolabel, confocal, ImageJ count, s.d. 43.1",139.2 puncta per cell
same,"median number of puncta per cell, external epithelium of the TM",[2]; [4],110 puncta per cell
same,"median number of puncta per cell, inner mucosal epithelium of the TM",[2]; [4],23 puncta per cell
same,"mean number of puncta per cell, inner mucosal epithelium of the TM","[2]; NTHi-infected ME, 10^9 PFU in 10 μL PBS, one hour, confocal, ImageJ count, significantly less than external epithelium (p 0.002)",42.9 (s.d. 44.8) puncta per cell
same,phage content of the cells with the highest numbers (mucosal cells comparable to external epithelium),"[2]; one-hour application, confocal, ImageJ count",200–250 puncta/cell
same,presence of phage within TM cells by immunolabeling (in words),"[2]; one-hour incubation on the external canal TM surface, confocal imaging",clearly intracellular and are restricted to the cell cytoplasm
same,phage titer recovered from within the TM (in words),tympanic membrane (TM) [3],higher than that of TMT3 (18)-1
TLSPKMPGGGYW [TMT2],trans-TM transport rate (in words),tympanic membrane (TM) [1],low transport rate
same,phage titer recovered from within the TM (in words),tympanic membrane (TM) [3],significantly higher than those of TMT3
